# According to patent US12325696B2, “Indazole derivative, preparation method therefor, and pharmaceutical application thereof” (JIANGSU HENGRUI MEDICINE CO., LTD., priority 2019, dated 2025):
# Experiments:
# [1] = tested on: estrogen receptor reporter gene; assay: Inhibition of estrogen receptor reporter gene activity (ERE-luc luciferase) in MCF7/ERE-luc cells; type: cell-based; details: Homo sapiens, 0.1 nM β-estradiol, 20 hours, read-out: IC50 of inhibitory activity on the activity of the estrogen receptor reporter gene
# Method in brief: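 MCF7 cells stably carrying ERE-driven luciferase, in charcoal-stripped serum medium, were stimulated with 0.1 nM β-estradiol plus compound (nine 10-fold dilutions from 10 μM) for 20 h at 37° C. ONE-Glo luminescence was read, and IC50 was fitted from signal versus log concentration.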
# [2] = biological target: estrogen receptor ERα Y537S mutant-type (Homo sapiens (Human), UniProt P03372, Y537S); assay: Covalent modification of ERα Y537S mutant-type LBD by high-resolution mass spectrometry; type: binding; details: after 24 hours; 2 μM protein, 10 μM compound, 4° C.
# Chain of estrogen receptor ERα Y537S mutant-type (P03372 296-554 Y537S): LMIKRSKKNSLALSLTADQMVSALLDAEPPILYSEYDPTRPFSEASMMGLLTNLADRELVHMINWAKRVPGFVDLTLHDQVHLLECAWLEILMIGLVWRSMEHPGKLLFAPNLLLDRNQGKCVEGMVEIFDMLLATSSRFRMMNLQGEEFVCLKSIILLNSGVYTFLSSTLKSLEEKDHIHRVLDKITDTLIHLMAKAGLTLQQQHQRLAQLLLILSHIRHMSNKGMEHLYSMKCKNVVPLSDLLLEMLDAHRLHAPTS
# Experimental: The ligand binding domain (LBD, aa296-554) of estrogen receptor ERα wild-type and ERα Y537S mutant-type was expressed in E. coli and purified. 2 μM ERα wild-type or ERα Y537S mutant-type protein and 10 μM compound were added to a buffer solution containing 50 mM Tris-HCl, pH7.5, 150 mM NaCl, 1 mM TCEP and 5% glycerol and mixed well. The solution was incubated at 4° C. for 24 hours, followed by high-resolution mass spectrometry (Agilent Technologies, Agilent Q-tof 6530) assay. Alternatively, 1 μM ERα wild-type or ERα Y537S mutant-type protein and 3 μM compound were added to a buffer solution containing 50 mM Tris-HCl, pH7.5, 150 mM NaCl, 1 mM TCEP and 5% glycerol and mixed well. The solution was incubated at 37° C. for 15 minutes, followed by high-resolution mass spectrometry assay. In the mass spectrometry assay results, the peak whose molecular weight is the sum of the molecular weight of the protein and compound is the product of covalent modification. The percentage of covalent modification is obtained by calculating the ratio of […] to total protein.
# [3] = biological target: Nav1.5 ion channel (Homo sapiens (Human), UniProt Q14524); assay: Manual patch clamp inhibition of Nav1.5 current in HEK293 cell; type: cell-based; details: whole-cell patch clamp, read-out: IC50 on inhibiting the Nav1.5 channel activity
# Chain of Nav1.5 ion channel (Q14524 whole entry): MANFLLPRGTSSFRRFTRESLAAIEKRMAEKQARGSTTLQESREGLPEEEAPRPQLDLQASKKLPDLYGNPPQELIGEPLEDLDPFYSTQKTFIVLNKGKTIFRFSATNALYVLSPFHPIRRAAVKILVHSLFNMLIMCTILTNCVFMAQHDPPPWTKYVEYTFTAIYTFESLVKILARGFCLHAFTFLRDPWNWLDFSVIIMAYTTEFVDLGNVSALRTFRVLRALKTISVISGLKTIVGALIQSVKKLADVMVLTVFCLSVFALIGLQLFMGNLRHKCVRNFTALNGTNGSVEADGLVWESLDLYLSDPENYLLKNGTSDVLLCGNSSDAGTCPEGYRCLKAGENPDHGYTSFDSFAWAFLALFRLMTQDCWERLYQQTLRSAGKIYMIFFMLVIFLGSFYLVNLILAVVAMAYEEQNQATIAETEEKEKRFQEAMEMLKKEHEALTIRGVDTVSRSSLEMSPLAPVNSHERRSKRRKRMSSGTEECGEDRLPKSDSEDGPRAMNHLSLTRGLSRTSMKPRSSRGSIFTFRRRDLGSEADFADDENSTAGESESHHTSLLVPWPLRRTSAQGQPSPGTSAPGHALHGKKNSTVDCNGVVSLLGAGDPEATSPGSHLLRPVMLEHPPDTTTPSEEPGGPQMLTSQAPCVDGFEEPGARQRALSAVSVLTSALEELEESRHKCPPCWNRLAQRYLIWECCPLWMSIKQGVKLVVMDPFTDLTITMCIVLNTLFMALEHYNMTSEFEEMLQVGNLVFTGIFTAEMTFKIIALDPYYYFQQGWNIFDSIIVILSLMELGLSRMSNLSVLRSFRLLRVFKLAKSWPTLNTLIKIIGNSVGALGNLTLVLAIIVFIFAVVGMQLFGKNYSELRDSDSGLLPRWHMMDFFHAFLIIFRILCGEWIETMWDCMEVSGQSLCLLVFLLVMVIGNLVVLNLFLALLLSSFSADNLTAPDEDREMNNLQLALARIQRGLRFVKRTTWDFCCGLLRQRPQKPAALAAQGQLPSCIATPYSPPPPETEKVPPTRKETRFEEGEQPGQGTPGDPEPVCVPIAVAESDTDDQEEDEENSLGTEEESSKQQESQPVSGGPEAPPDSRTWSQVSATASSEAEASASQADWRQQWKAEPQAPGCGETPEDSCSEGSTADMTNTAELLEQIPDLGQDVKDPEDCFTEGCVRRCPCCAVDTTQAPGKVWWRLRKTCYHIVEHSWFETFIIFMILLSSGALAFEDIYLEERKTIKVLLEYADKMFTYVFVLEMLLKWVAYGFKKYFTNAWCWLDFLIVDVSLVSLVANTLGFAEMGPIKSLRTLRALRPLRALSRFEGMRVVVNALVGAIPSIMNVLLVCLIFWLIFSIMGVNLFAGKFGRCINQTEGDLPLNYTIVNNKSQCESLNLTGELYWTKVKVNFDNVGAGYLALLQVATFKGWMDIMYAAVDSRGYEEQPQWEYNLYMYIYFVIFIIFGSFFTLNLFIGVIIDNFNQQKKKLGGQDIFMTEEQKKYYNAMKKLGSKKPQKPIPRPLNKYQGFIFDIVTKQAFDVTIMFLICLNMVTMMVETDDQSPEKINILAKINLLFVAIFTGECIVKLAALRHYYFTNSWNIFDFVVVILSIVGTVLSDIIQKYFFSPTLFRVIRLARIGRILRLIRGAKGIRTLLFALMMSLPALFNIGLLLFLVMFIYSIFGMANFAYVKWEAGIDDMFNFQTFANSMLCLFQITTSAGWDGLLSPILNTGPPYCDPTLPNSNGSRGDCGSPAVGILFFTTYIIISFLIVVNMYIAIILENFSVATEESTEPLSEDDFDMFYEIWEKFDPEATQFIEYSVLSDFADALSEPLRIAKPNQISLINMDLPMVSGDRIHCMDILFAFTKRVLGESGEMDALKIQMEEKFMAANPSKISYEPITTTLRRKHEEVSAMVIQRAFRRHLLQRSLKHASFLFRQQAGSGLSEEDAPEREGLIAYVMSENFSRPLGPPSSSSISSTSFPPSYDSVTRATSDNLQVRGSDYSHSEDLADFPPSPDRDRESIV
# Experimental: The purpose of the experiment is to investigate the effect of the compounds on Nav1.5 ion channel in an […] experiment. Nav1.5 ion channel is stably expressed on HEK293 cell. After the Nav1.5 current becomes stable, the Nav1.5 currents before and after the administration of the compound are compared so as to obtain the effect of the compound on the Nav1.5 ion channel.
# Extracellular fluid: NaCl, 137 mM; KCl, 4 mM; CaCl2), 1.8 mM; MgCl2, 1 mM; HEPES, 10; glucose, 10 mM; pH 7.4 (NaOH titration).
# Intracellular fluid: aspartic acid, 140 mM; MgCl2, 2 mM; EGTA, 11 mM; HEPES, 10 mM; pH 7.2 (CsOH titration).
# The test compound was dissolved in dimethyl sulfoxide (DMSO) at a stock concentration of 9 mM. The stock solution of the test compound was dissolved in the extracellular fluid on the day of the test and formulated into the required concentration.
# 1) The compound was formulated into solutions with specified concentrations. The solutions were added to the pipelines respectively in order from high to low concentration, and the pipelines were marked.
# 2) The cell was transferred to the perfusion tank, and perfused with the extracellular fluid. The intracellular fluid was stored in small batches in a −80° C. refrigerator, and melted on the day of the experiment. The electrode was pulled with PC-10 (Narishige, Japan). Recording was carried out with the whole-cell patch clamp, and the noise was filtered at one-fifth of the sampling frequency.
# 3) All compounds were perfused with a perfusion system that uses its own gravity. Each concentration was tested in at least two cells. After the current stabilized (or after 5 minutes), the blocking effect of the compound was calculated by comparing the changes in the current before and after the administration of the compound.
# The cell was clamped at −80 mV. The cell was depolarized to Vhalf with a square wave lasting 8 milliseconds, hyperpolarized to −120 mV with a square wave lasting 20 milliseconds, and depolarized to −10 mV with a square wave lasting 20 milliseconds to obtain the Nav1.5 current. This procedure was repeated every 15 seconds. The maximum current caused by the −10 mV square wave was measured. After the current became stable, the test compound was perfused. After the response became stable, the blocking intensity was calculated.
# The data was stored in the computer system for analysis. Data collection and analysis were carried out by pCLAMP 10 (Molecular Devices, Union City, CA). Stable current means that the absolute average value of the peak current of four consecutive scans exceeds 200 pA and the CV value is less than 10%, or the average value of the peak current of four consecutive scans is between 200 pA and 50 pA and the CV value is less than 30%. The average value of the last four current peaks after the current stabilized was used to calculate the effect of the compound at the concentration.
SMILES,IC50 [1] [nM],Covalent modification effect on the estrogen receptor ERα Y537S mutant-type [2] [%],IC50 [3] [nM]
"CN(C)C(=O)/C=C/CN1CCC[C@@H](Oc2ccc(/C(=C(/CC(F)(F)F)c3ccccc3)c3ccc4[nH]nc(F)c4c3)cn2)C1 [Example 14, (E)-N,N-Dimethyl-4-((R)-3-((5-((Z)-4,4,4-trifluoro-1-(3-fluoro-1H-indazol-5-yl)-2-phenylbut-1-en-1-yl)pyridin-2-yl)oxy)piperidin-1-yl)but-2-enamide]",2,94,
"CN(C)C(=O)/C=C/CNC1(COc2ccc(/C(=C(/CC(F)(F)F)c3ccccc3)c3ccc4[nH]nc(F)c4c3)cn2)CC1 [Example 39, (E)-N,N-Dimethyl-4-((1-(((5-((Z)-4,4,4-trifluoro-1-(3-fluoro-1H-indazol-5-yl)-2-phenylbut-1-en-1-yl)pyridin-2-yl)oxy)methyl)cyclopropyl)amino)but-2-enamide]",2,98,8200
"O=C(/C=C/CN1CCC[C@@H](Oc2ccc(/C(=C(/CC(F)(F)F)c3ccccc3)c3ccc4[nH]nc(F)c4c3)cn2)C1)N1CCCC1 [Example 15, (E)-1-(Pyrrolidin-1-yl)-4-((R)-3-((5-((Z)-4,4,4-trifluoro-1-(3-fluoro-1H-indazol-5-yl)-2-phenylbut-1-en-1-yl)pyridin-2-yl)oxy)piperidin-1-yl)but-2-en-1-one]",3,96,
"O=C(/C=C/CNC1(COc2ccc(/C(=C(/CC(F)(F)F)c3ccccc3)c3ccc4[nH]nc(F)c4c3)cn2)CC1)N1CC(O)C1 [Example 40, (E)-1-(3-Hydroxyazetidin-1-yl)-4-((1-(((5-((Z)-4,4,4-trifluoro-1-(3-fluoro-1H-indazol-5-yl)-2-phenylbut-1-en-1-yl)pyridin-2-yl)oxy)methyl)cyclopropyl)amino)but-2-en-1-one]",2,98,11500
"O=C(/C=C/CNC1(COc2ccc(/C(=C(/CC(F)(F)F)c3ccccc3)c3ccc4[nH]nc(F)c4c3)cn2)CC1)N1CCO[C@@H](CO)C1 [Example 42, (E)-1-((R)-2-(Hydroxymethyl)morpholino)-4-((1-(((5-((Z)-4,4,4-trifluoro-1-(3-fluoro-1H-indazol-5-yl)-2-phenylbut-1-en-1-yl)pyridin-2-yl)oxy)methyl)cyclopropyl)amino)but-2-en-1-one]",0.7,97,
"O=C(/C=C/CNC1(COc2ccc(/C(=C(/CC(F)(F)F)c3ccccc3)c3ccc4[nH]nc(F)c4c3)cn2)CC1)N1CC[C@H](O)C1 [Example 41, (E)-1-((S)-3-Hydroxypyrrolidin-1-yl)-4-((1-(((5-((Z)-4,4,4-trifluoro-1-(3-fluoro-1H-indazol-5-yl)-2-phenylbut-1-en-1-yl)pyridin-2-yl)oxy)methyl)cyclopropyl)amino)but-2-en-1-one]",3,95,5300
"O=C(/C=C/CNC1(COc2ccc(/C(=C(/CC(F)(F)F)c3ccccc3)c3ccc4[nH]nc(F)c4c3)cn2)CC1)N1CCOCC1 [Example 1, (E)-1-Morpholino-4-((1-(((5-((Z)-4,4,4-trifluoro-1-(3-fluoro-1H-indazol-5-yl)-2-phenylbut-1-en-1-yl)pyridin-2-yl)oxy)methyl)cyclopropyl)amino)but-2-en-1-one]",1,97,> 10000
